Earlier results on one compound are cited in patent publication US20120100192A1, “LOCAL THERAPEUTIC RELEASE DEVICE” (DEXCEL PHARMA TECHNOLOGIES LTD., priority 2009, published 2012).

The test system of series [1] is periodontal disease. The settings on record: topical toothpaste, 1% w/w, twice daily for 12 months.
Another series deals with alveolar bone loss. The settings on record: 24 months, FBP-treated patient group.
For series [2], the system named is periodontal disease. The settings on record: 100 mg/day for two months; standardized radiography, radiopharmaceutical uptake.
The subject of series [3] is naturally occurring periodontitis. As to conditions: application for 6-12 months, beagle dogs.
Series [4] deals with experimentally induced periodontal disease. The settings on record: Macaca mulatta monkeys.

As for `CC(C(=O)O)c1ccc(-c2ccccc2)c(F)c1` (centres unmarked) [FBP, flurbiprofen], the Effect on bone entry in the series on periodontal disease [1] is reported as “statistically significant bone gain”. Also, the “Effect on bone loss” value in the series with alveolar bone loss was “reduction in bone loss”. In addition, the “Effect on bone metabolism” value in the series on periodontal disease [2] is recorded as “increased bone metabolism”. Also, the “Effect on alveolar bone loss” value in series [3] was “inhibited alveolar bone loss”. Moreover, in series [4], the “Effect on attachment, bleeding on probing and gingival redness” value was “significant inhibition of attachment, bleeding on probing and gingival redness”.
